Data as given in patent US5789379A, “Glucagon-like peptide-2 analogs” (Allelix Biopharmaceutical Inc., priority 1996, dated 1998).
One block for each compound: values may come before it. Square brackets hold non-standard residues; d marks the D form. Ends that are not written are not given here. Peptide text beside a SMILES is read from it.

Columns and labels:
human placental DPP-IV = biological target: T1, human placental DPP-IV (Homo sapiens, UniProt P27487); assay: Assay for resistance to dipeptidyl peptidase IV; assay type: in vitro ADME; conditions: for cleavage products detected: after 24 hours incubation with DPP-IV at 37° C., RP-HPLC
T1 construct: a solution of human placental DPP-IV (Calbiochem, La Jolla, Calif., cat. # 317624); purchased Calbiochem, La Jolla, Calif; 317624; host or cells: human placenta (tissue-derived)
T1 sequence (P27487 whole entry): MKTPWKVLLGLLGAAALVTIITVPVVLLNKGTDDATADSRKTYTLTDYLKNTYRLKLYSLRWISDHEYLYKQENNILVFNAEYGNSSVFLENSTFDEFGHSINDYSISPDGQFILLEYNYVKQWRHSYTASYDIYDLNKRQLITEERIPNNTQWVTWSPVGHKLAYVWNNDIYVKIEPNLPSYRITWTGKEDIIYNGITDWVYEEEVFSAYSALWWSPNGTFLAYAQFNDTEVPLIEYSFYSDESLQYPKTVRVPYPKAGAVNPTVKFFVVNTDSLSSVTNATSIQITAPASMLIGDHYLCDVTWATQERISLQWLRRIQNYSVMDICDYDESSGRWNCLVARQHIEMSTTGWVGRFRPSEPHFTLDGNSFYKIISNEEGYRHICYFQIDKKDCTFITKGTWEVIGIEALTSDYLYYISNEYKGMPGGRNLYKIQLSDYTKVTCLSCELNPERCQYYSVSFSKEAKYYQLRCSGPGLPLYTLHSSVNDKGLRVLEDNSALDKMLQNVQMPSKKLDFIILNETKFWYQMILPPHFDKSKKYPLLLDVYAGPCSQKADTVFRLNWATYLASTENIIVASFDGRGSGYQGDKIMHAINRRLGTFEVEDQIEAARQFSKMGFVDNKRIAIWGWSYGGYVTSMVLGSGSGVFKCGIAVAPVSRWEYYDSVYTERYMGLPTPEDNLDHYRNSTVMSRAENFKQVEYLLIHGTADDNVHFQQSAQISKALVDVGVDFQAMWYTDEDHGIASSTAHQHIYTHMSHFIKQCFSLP
Description: Each peptide was tested in duplicate.
Sample components were detected at 214 nanometers (nm).

[1] = system: rat liver and brain tissues; conditions: cited from earlier work
adenylate cyclase [2] = conditions: liver plasma membranes; cited from earlier work
adenylate cyclase [3] = conditions: rat hypothalamic and pituitary tissue; cited from earlier work

cleavage products detected (human placental DPP-IV): No cleavage products were detected
Compound: CC[C@H](C)[C@H](NC(=O)[C@H](Cc1ccccc1)NC(=O)[C@H](CC(=O)O)NC(=O)[C@H](CCCNC(=N)N)NC(=O)[C@@H](NC(=O)[C@H](C)NC(=O)[C@H](CC(C)C)NC(=O)[C@H](CC(N)=O)NC(=O)[C@H](CC(=O)O)NC(=O)[C@H](CC(C)C)NC(=O)[C@@H](NC(=O)[C@@H](NC(=O)[C@H](CC(N)=O)NC(=O)[C@H](CCSC)NC(=O)[C@H](CCC(=O)O)NC(=O)[C@H](CC(=O)O)NC(=O)[C@H](CO)NC(=O)[C@H](Cc1ccccc1)NC(=O)[C@H](CO)NC(=O)CNC(=O)[C@H](CC(=O)O)NC(=O)[C@@H](C)NC(=O)[C@@H](N)Cc1c[nH]cn1)[C@@H](C)O)[C@@H](C)CC)[C@@H](C)O)C(=O)N[C@@H](CC(N)=O)C(=O)N[C@@H](Cc1c[nH]c2ccccc12)C(=O)N[C@@H](CC(C)C)C(=O)N[C@H](C(=O)N[C@@H](CCC(N)=O)C(=O)N[C@H](C(=O)N[C@@H](CCCCN)C(=O)N[C@H](C(=O)N[C@H](C(=O)N[C@@H](CC(=O)O)C(=O)O)[C@@H](C)O)[C@@H](C)CC)[C@@H](C)O)[C@@H](C)CC [compound 3, [D-Ala^2]rGLP-2] (H-H[dA]DGSFSDEMNTILDNLATRDFINWLIQTKITD-OH)

peptide cleaved by DPP-IV (human placental DPP-IV; 24 hour incubation at 37° C., 0.2 mg/ml peptide in PBS pH 7.4, RP-HPLC): 22%
Compound: HADGSFSDEMNTILDNLATRDFINWLIQTKITD [compound 1, rGLP-2]

Compound: GLP-2: glucagon-like peptide GLP-2 as studied by Hoosein et al (literature); species not stated
competition with glucagon for binding [1]: neither competes
stimulation of adenylate cyclase production (adenylate cyclase [2]): nor stimulates
concentration stimulating adenylate cyclase (adenylate cyclase [3]): 30 to 50 pM

cleavage products detected (human placental DPP-IV): No cleavage products were detected
Compound: HGDGSFSDEMNTILDNLATRDFINWLIQTKITD [compound 4, [Gly^2]rGLP-2]
